In US10111854B2, “Synthesis and use of amine-containing flavonoids as potent anti-leishmanial agents” (The Hong Kong Polytechnic University, priority 2014, dated 2018):

Key:
[1] = tested on: peritoneal elicited macrophages (PEM); experiment: Cytotoxicity, peritoneal elicited macrophages (PEM); type: cell-based, mouse; conditions: peritoneal elicited macrophages; read-out: Cytotoxicity IC50, PEM
[2] = tested on: L. amazonensis LV78 promastigotes; experiment: Reactive oxygen species (ROS) level, DCFDA, promastigotes; type: cell-based; conditions: 30 μM
Protocol: (§1) 50,000 RAW264.7 were seeded in each well of black 96-well plates overnight. Next day, RAW264.7 cells were pre-loaded with 10 μM dichlorofluorescein diacetate (DCFDA) (Abcam) for 1 hr at 37° C. with 5% CO2. A control of non-DCFDA stained cells was also included. The DCFDA-contained supplemented DMEM media was removed. The cells were re-suspended with 10 μM or 30 μM of respective tested compounds and positive control, tert-butyl hydroperoxide. In Leishmania, 1×10^7 promastigotes were also pre-loaded with 10 μM DCFDA at 27° C. for 1 hr. After removing the DCFDA-contained media, the promastigotes were seeded into black 96-well plate and incubated with 30 μM of respective compounds or positive control. The ROS level was determined at different periods of time including 2, 4, 6, 8, 20, 46 and 72 hr using microplate reader (excitation: 485 nm and emission: […]).
(§2) The ROS levels in both macrophage RAW264.7 and L. amazonensis promastigotes was measured by dichlorofluorescein diacetate (DCFDA) dye which is permeable to the cells. With oxidative stress, DCFDA would be oxidized to fluorescent DCF which is an indicator of intracellular ROS level. RAW cells or L. amazonensis promastigotes were pre-loaded with 10 μM of DCFDA for 1 hr, washed and exposed to 39, FM09, pentamidine and amphotericin B for different period of time (2, 4, 6, 8, 20, 46 and 72 hr). The fluorescence level was measured at the 520 nm using 485 nm as an excitation wavelength. 0.1% DMSO or 0.3% DMSO was used as a solvent control. The fluorescent value has been subtracted from non-DCFDA stained cells. The values were presented as mean±standard error of mean.

[3] = tested on: L. donovani HU3 promastigotes; experiment: Anti-promastigote activity (MTS assay), L. donovani HU3; type: cell-based; conditions: 72 hours
Outline: (§3)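 Promastigotes (1×10^5 per well) in Schneider's medium pH 6.9 with 10% FBS, exposed to serial compound concentrations for 72 h at 27 °C. Viability by MTS/PMS reduction over 4 h, OD 490 nm; IC50 derived.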

[4] = tested on: RAW264.7 cells; experiment: Cytotoxicity, RAW264.7 macrophages; type: cell-based; conditions: murine macrophages RAW264.7
Protocol: Promastigotes of visceral L. donovani Ld39 and LdHU3, and cutaneous L. amazonensis LV78, L. braziliensis UA847 and L. major FV1 were employed in the study. All strains were cultured in Schneider's Drosophila Medium (Invitrogen), pH 6.9 supplemented with 10% (v/v) heat inactivated fetal bovine serum (Hyclone) with 4 mM glutamine (Sigma) and 25 μg/mL gentamicin solution (Invitrogen) at 27° C. for 4 days. RAW264.7 cells were cultured in supplemented DMEM media with 10% heat inactivated FBS and 100 U/mL penicillin and 100 μg/mL of streptomycin. They were maintained at 37° C. in a humidified atmosphere with 5% CO2. The cells were split constantly after a confluent monolayer has been formed. The cells were harvested by a cell scraper.
IC50 values of known antileishmanials and the amine-containing flavonoid monomers of the present invention to promastigotes (L. amazonensis LV78, L major FV1, L. donovani HU3, L. donovani 39), macrophages (Raw 264.7 and PEM) and mouse fibroblast (L929) were determined. The anti-promastigotes activities and cytotoxicity of the amine-containing flavonoid monomers of the invention are shown in Table 1.

[5] = tested on: L. amazonensis LV78 amastigotes; experiment: Anti-amastigote activity in infected PEM, L. amazonensis LV78; type: cell-based; conditions: infected PEM, 3 days, Giemsa
Outline: (§4)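 Adherent mouse PEM are infected with late-log promastigotes (20 parasites per macrophage) for 24 h, washed, and cultured with drug in supplemented DMEM with 10% FBS for 72 h at 37 °C. Percent infected cells and amastigotes per 100 macrophages are scored by Giemsa staining and IC50 is derived.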

[6] = tested on: L. major FV1 promastigotes; experiment: Anti-promastigote activity (MTS assay), L. major FV1; type: cell-based; conditions: 72 hours
Outline: as §3

[7] = tested on: L. donovani Ld39 promastigotes; experiment: Anti-promastigote activity (MTS assay), L. donovani Ld39; type: cell-based; conditions: 72 hours
Outline: as §3

[8] = tested on: L. braziliensis UA847 amastigotes; experiment: Anti-amastigote activity in infected PEM, L. braziliensis UA847; type: cell-based; conditions: 3 days, Giemsa, read-out: Anti-amastigote activity IC50, L. baziliensis UA847
Protocol: Mouse peritoneal elicited macrophages (PEM) were obtained as previously described (2). A round cover slip (12 mm in diameter) was placed into each well of 24-well culture plate. Mouse PEM were resuspended in supplemented DMEM media containing 10% heat inactivated FBS (v/v), 100 U/mL penicillin and 100 μg/mL streptomycin and seeded into each well at a cell density of 1×10^5 cells per 500 μL. Macrophages were allowed to attach overnight. Non-adherent cells were removed by gentle washing with un-supplemented DMEM media twice. Adherent macrophages were infected with late-log promastigotes at a parasite-to-macrophage ratio of 20:1 overnight at 37° C. with 5% CO2. Non-internalized promastigotes were removed by washing twice with un-supplemented DMEM media. Infected macrophages were further incubated in 500 μL of supplemented DMEM media in the presence or absence of FM for 72 hours at 37° C. After incubation, cover slips were stained with Giemsa and the percentage of macrophages infected and number of amastigotes per 100 macrophages was enumerated.
PEM cells were infected with late-log promastigotes (L. amazonensis LV78, L. braziliensis UA847, L. donovani HU3, L. donovani 39) for 24 hr at 37° C. Infected macrophages were then treated with various antileishmanials and incubated for 3 days at 37° C. After 3 days, the cover slips were stained with Giemsa. The number of amastigotes per 100 macrophages were determined and used to calculate IC50 values.

[9] = tested on: RAW264.7 cells; experiment: Reactive oxygen species (ROS) level, DCFDA, RAW264.7; type: cell-based, murine
Protocol: as §1, §2

[10] = tested on: L. amazonensis LV78 promastigotes; experiment: Anti-promastigote activity (MTS assay), L. amazonensis LV78; type: cell-based; conditions: 72 hours
Outline: as §3

[11] = tested on: L. donovani Ld39 amastigotes (SSG-resistant); experiment: Anti-amastigote activity in infected PEM, L. donovani Ld39; type: cell-based; conditions: infected PEM, 3 days, Giemsa; SSG-resistant
Outline: as §4

SMILES: C[C@@H]1[C@H](O)[C@@H](C)/C=C/C=C/C=C/C=C/C=C/C=C/C=C/[C@H](O[C@@H]2O[C@H](C)[C@@H](O)[C@H](N)[C@@H]2O)C[C@@H]2O[C@](O)(C[C@@H](O)C[C@@H](O)[C@H](O)CC[C@@H](O)C[C@@H](O)CC(=O)O[C@H]1C)C[C@H](O)[C@H]2C(=O)O [Amphotericin B]
- IC50 [1]: 7400 ± 400 nM
- L. amazon LV78 promastigote ROS Level, Relative fold (RF) ([2]; 2 hr): 4.5 fold
- L. amazon LV78 promastigote ROS Level, Relative fold (RF) ([2]; 4 hr): 5.6 fold
- L. amazon LV78 promastigote ROS Level, Relative fold (RF) ([2]; 6 hr): 7.5 fold
- L. amazon LV78 promastigote ROS Level, Relative fold (RF) ([2]; 20 hr): 21 fold
- L. amazon LV78 promastigote ROS Level, Relative fold (RF) ([2]; 46 hr): 27.1 fold
- L. amazon LV78 promastigote ROS Level, Relative fold (RF) ([2]; 72 hr): 24.9 fold
- IC50 [3]: 200 nM
- IC50 [4]: 12000 ± 2500 nM
- IC50 [5]: 55 ± 29 nM
- IC50 [6]: 290 ± 50 nM
- IC50 [7]: 95 ± 20 nM
- IC50 [8]: 49 ± 10 nM
- RAW264.7 ROS Level, Relative fold (RF) ([9]; 10 μM, 2 hr): 1.4 fold
- RAW264.7 ROS Level, Relative fold (RF) ([9]; 10 μM, 4 hr): 1.4 fold
- RAW264.7 ROS Level, Relative fold (RF) ([9]; 10 μM, 6 hr): 1.4 fold
- RAW264.7 ROS Level, Relative fold (RF) ([9]; 10 μM, 8 hr): 1.2 fold
- RAW264.7 ROS Level, Relative fold (RF) ([9]; 10 μM, 20 hr): 1.0 fold
- ROS induction in macrophages ([9]; 10 μM, RAW264.7): No ROS induction
- RAW264.7 ROS Level, Relative fold (RF) ([9]; 30 μM, 2 hr): 1.6 fold
- RAW264.7 ROS Level, Relative fold (RF) ([9]; 30 μM, 4 hr): 1.6 fold
- RAW264.7 ROS Level, Relative fold (RF) ([9]; 30 μM, 6 hr): 1.5 fold
- RAW264.7 ROS Level, Relative fold (RF) ([9]; 30 μM, 20 hr): 1.3 fold
- RAW264.7 ROS Level, Relative fold (RF) ([9]; 30 μM, 46 hr): 1.3 fold
- IC50 [10]: 240 ± 30 nM
- IC50 [11]: 62 nM
